Assay results reported in patent US12428406B2 (PMV Pharmaceuticals, Inc., priority 2019, dated 2025).

biological target: T1, p53 Y220C (Homo sapiens, UniProt P04637, Y220C); experiment: In vitro DNA binding activity assay (HTRF / TR-FRET): stabilization of p53 Y220C and increase of its DNA binding activity; assay type: biochemical; details: recombinant His-tagged p53 Y220C DNA binding domain (aa 94-312), biotin-labeled consensus DNA, incubated at 27° C. or 29° C. for 60 min
T1 construct: The recombinant protein was a truncation mutant containing only amino acids 94-312 of p53; made in house; host or cells: E. coli
Outline: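 E. coli His-p53 Y220C + biotin consensus DNA; anti-His-APC/SA-Eu TR-FRET. SC150 vs no-compound.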

T1 sequence (P04637 94-312, change not shown): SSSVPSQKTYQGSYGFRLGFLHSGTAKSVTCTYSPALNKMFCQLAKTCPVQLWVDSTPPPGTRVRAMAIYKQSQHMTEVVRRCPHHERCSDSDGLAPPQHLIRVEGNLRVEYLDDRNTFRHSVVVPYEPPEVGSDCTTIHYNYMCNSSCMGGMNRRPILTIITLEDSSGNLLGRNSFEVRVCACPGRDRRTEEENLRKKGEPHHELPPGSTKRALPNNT

Row | SC150 (concentration of the compound required to increase the DNA binding activity by 50%) | Compound
1 | + (+ = 0 μM ≤ SC150 < 0.05 μM) | COc1cc(S(N)(=O)=O)ccc1NCC#Cc1cc2c(NC3CCN(C(=O)CC#N)CC3)cccc2n1CC(F)(F)F [Compound 747A]
2 | + (+ = 0 μM ≤ SC150 < 0.05 μM) | COc1cc(S(=O)(=O)NC(=O)CN)ccc1NCC#Cc1cc2c(N[C@H]3CC[C@H](N4CC5(CCOCC5)C4)CC3)cccc2n1CC(F)(F)F [Compound 307A, N-((4-((3-(4-(((1R,4R)-4-(7-oxa-2-azaspiro[3.5]nonan-2-yl)cyclohexyl)amino)-1-(2,2,2-trifluoroethyl)-1H-indol-2-yl)prop-2-yn-1-yl)amino)-3-methoxyphenyl)sulfonyl)-2-aminoacetamide]
3 | + (+ = 0 μM ≤ SC150 < 0.05 μM) | COc1cc(S(N)(=O)=O)ccc1NCC#Cc1cc2c(NC3CCOCC3)cc(F)cc2n1CC(F)(F)F [Compound 998A, 4-[(3-{6-fluoro-4-[(oxan-4-yl)amino]-1-(2,2,2-trifluoroethyl)-1H-indol-2-yl}prop-2-yn-1-yl)amino]-3-methoxybenzene-1-sulfonamide]
4 | + (+ = 0 μM ≤ SC150 < 0.05 μM) | COc1cc(S(C)(=O)=O)ccc1NCC#Cc1cc2c(N[C@@H]3CC[C@H](N(C)C)C[C@H]3F)cccc2n1CC(F)(F)F [Compound 938A]
5 | + (+ = 0 μM ≤ SC150 < 0.05 μM) | CCOC(=O)c1ccc(NCC#Cc2cc3c(N[C@@H]4CCN(C)C[C@@H]4F)cccc3n2CC(F)(F)F)c(OC)c1 [Compound 839A, Ethyl 4-((3-(4-(((3S,4R)-3-fluoro-1-methylpiperidin-4-yl)amino)-1-(2,2,2-trifluoroethyl)-1H-indol-2-yl)prop-2-yn-1-yl)amino)-3-methoxybenzoate]
6 | + (+ = 0 μM ≤ SC150 < 0.05 μM) | COc1cc(C(=O)O)ccc1NCC#Cc1cc2c(N[C@@H]3CCN(CC(=O)N(C)C)C[C@@H]3F)cccc2n1CC(F)(F)F [Compound 920A, 4-{[3-(4-{[(3S,4R)-1-[(dimethylcarbamoyl)methyl]-3-fluoropiperidin-4-yl]amino}-1-(2,2,2-trifluoroethyl)-1H-indol-2-yl)prop-2-yn-1-yl]amino}-3-methoxybenzoic acid]
7 | + (+ = 0 μM ≤ SC150 < 0.05 μM) | CNC(=O)c1ccc(NCC#Cc2cc3c(NC4CCN(CCOC)CC4)cccc3n2CC(F)(F)F)c(OC)c1 [Compound 616A, 3-methoxy-4-{[3-(4-{[1-(2-methoxyethyl)piperidin-4-yl]amino}-1-(2,2,2-trifluoroethyl)-1H-indol-2-yl)prop-2-yn-1-yl]amino}-N-methylbenzamide]
8 | + (+ = 0 μM ≤ SC150 < 0.05 μM) | COCC(O)CN1CCC(Nc2cccc3c2cc(C#CCNc2ccc(C(N)=O)cc2OC)n3CC(F)(F)F)CC1 (stereo not drawn) [Compound 620A, 4-{[3-(4-{[1-(2-hydroxy-3-methoxypropyl)piperidin-4-yl]amino}-1-(2,2,2-trifluoroethyl)-1H-indol-2-yl)prop-2-yn-1-yl]amino}-3-methoxybenzamide]
9 | + (+ = 0 μM ≤ SC150 < 0.05 μM) | N#CCOc1cc(S(N)(=O)=O)ccc1NCC#Cc1cc2c(N[C@H]3CC[C@H](N4CCC5(CC4)COC5)CC3)cccc2n1CC(F)(F)F [Compound 379A, 3-(cyanomethoxy)-4-{[3-(4-{[(1R,4R)-4-{2-oxa-7-azaspiro[3.5]nonan-7-yl}cyclohexyl]amino}-1-(2,2,2-trifluoroethyl)-1H-indol-2-yl)prop-2-yn-1-yl]amino}benzene-1-sulfonamide]
10 | + (+ = 0 μM ≤ SC150 < 0.05 μM) | COc1cc(S(C)(=O)=O)ccc1NCC#Cc1cc2c(N[C@H]3CCN(C)C[C@H]3F)cc(F)cc2n1CC(F)(F)F (racemic) [Compound 836A, rac-6-fluoro-N-[(3R,4S)-3-fluoro-1-methylpiperidin-4-yl]-2-{3-[(4-methanesulfonyl-2-methoxyphenyl)amino]prop-1-yn-1-yl}-1-(2,2,2-trifluoroethyl)-1H-indol-4-amine]
11 | + (+ = 0 μM ≤ SC150 < 0.05 μM) | CCOc1cc(S(C)(=O)=O)ccc1NCC#Cc1cc2c(N[C@@H]3CCN(C)C[C@@H]3F)cccc2n1CC(F)(F)F [Compound 843A]
12 | + (+ = 0 μM ≤ SC150 < 0.05 μM) | CCN1CC[C@H](Nc2cccc3c2cc(C#CCNc2ccc(C(=O)NC)cc2OC)n3CC(F)(F)F)[C@H](F)C1 [Compound 1075A, 4-{[3-(4-{[(3R,4S)-1-ethyl-3-fluoropiperidin-4-yl]amino}-1-(2,2,2-trifluoroethyl)-1H-indol-2-yl)prop-2-yn-1-yl]amino}-3-methoxy-N-methvlbenzamide]
13 | + (+ = 0 μM ≤ SC150 < 0.05 μM) | COc1cc(S(C)(=O)=O)ccc1NCC#Cc1cc2c(N[C@H]3CC[C@H](N4CCC5(CCOC5)CC4)CC3)cccc2n1CC(F)(F)F [Compound 410A, 2-{3-[(4-methane-sulfonyl-2-methoxy-phenyl)amino]prop-1-yn-1-yl}-N-[(1R,4R)-4-{2-oxa-8-azaspiro[4.5]decan-8-yl}cyclohexyl]-1-(2,2,2-trifluoroethyl)-1H-indol-4-amine]
14 | + (+ = 0 μM ≤ SC150 < 0.05 μM) | COc1cc(C(=O)NCCN2CCOCC2)ccc1NCC#Cc1cc2c(N[C@@H]3CCN(C)C[C@@H]3F)cccc2n1CC(F)(F)F [Compound 924A, 4-{[3-(4-{[(3S,4R)-3-fluoro-1-methylpiperidin-4-yl]amino}-1-(2,2,2-trifluoroethyl)-1H-indol-2-yl)prop-2-yn-1-yl]amino}-3-methoxy-N-[2-(morpholin-4-yl)ethyl]benzamide]
15 | + (+ = 0 μM ≤ SC150 < 0.05 μM) | COc1cc(S(C)(=O)=O)ccc1NCC#Cc1cc2c(NC3CCN(C[C@@H](CO)OC)CC3)cccc2n1CC(F)(F)F [Compound 630A, (2S)-3-{4-[(2-{3-[(4-methanesulfonyl-2-methoxyphenyl)amino]prop-1-yn-1-yl}-1-(2,2,2-trifluoroethyl)-1H-indol-4-yl)amino]piperidin-1-yl}-2-methoxypropan-1-ol]
16 | + (+ = 0 μM ≤ SC150 < 0.05 μM) | CNC(=O)c1ccc(NCC#Cc2cc3c(NC4CCN(C[C@@H](CO)OC)CC4)cccc3n2CC(F)(F)F)c(OC)c1 [Compound 650A, 4-({3-[4-({1-[(2S)-3-hydroxy-2-methoxypropyl]piperidin-4-yl}amino)-1-(2,2,2-trifluoroethyl)-1H-indol-2-yl]prop-2-yn-1-yl}amino)-3-methoxy-N-methylbenzamide]
17 | + (+ = 0 μM ≤ SC150 < 0.05 μM) | COc1cc(S(C)(=O)=O)ccc1NCC#Cc1cc2c(NC3CCN(C(=O)C(C)O)CC3)cccc2n1CC(F)(F)F (stereo not drawn) [Compound 742A]
18 | + (+ = 0 μM ≤ SC150 < 0.05 μM) | COc1cc(S(N)(=O)=O)ccc1NCC#Cc1cc2c(NC3CCN(C(=O)C(C)O)CC3)cccc2n1CC(F)(F)F (stereo not drawn) [Compound 745A]
19 | + (+ = 0 μM ≤ SC150 < 0.05 μM) | CNC(=O)c1ccc(NCC#Cc2cc3c(N[C@H]4CC[C@@H](C#N)CC4)cccc3n2CC(F)(F)F)c(OC)c1 [Compound 35A, 3-methoxy-N-methyl-4-{[3-(4-{[(1S,4S)-4-cyanocyclohexyl]amino}-1-(2,2,2-trifluoroethyl)-1H-indol-2-yl)prop-2-yn-1-yl]amino}benzamide]
20 | + (+ = 0 μM ≤ SC150 < 0.05 μM) | COc1cc(S(C)(=O)=O)ccc1NCC#Cc1cc2c(N[C@H]3CC[C@H](N4CC5(CCCOC5)C4)CC3)cccc2n1CC(F)(F)F [Compound 322A, 2-{3-[(4-methane-sulfonyl-2-methoxy-phenyl)amino]prop-1-yn-1-yl}-N-[(1R,4R)-4-{6-oxa-2-azaspiro[3.5]nonan-2-yl}cyclohexyl]-1-(2,2,2-trifluoroethyl)-1H-indol-4-amine]
21 | + (+ = 0 μM ≤ SC150 < 0.05 μM) | CNC(=O)c1ccc(NCC#Cc2cc3c(NC4CCN(C(C)C)CC4)cccc3n2CC(F)(F)F)c(OC)c1 [Compound 539A, 3-methoxy-N-methyl-4-{[3-(4-{[1-(propan-2-yl)piperidin-4-yl]amino}-1-(2,2,2-trifluoroethyl)-1H-indol-2-yl)prop-2-yn-1-yl]amino}benzamide]
22 | + (+ = 0 μM ≤ SC150 < 0.05 μM) | COc1cc(S(C)(=O)=O)ccc1NCC#Cc1cc2c(N[C@H]3CCO[C@@H](C)C3)cccc2n1CC(F)(F)F [Compound 1017A, 2-{3-[(4-methanesulfonyl-2-methoxyphenyl)amino]prop-1-yn-1-yl}-N-[(2S,4S)-2-methyloxan-4-yl]-1-(2,2,2-trifluoroethyl)-1H-indol-4-amine]
23 | + (+ = 0 μM ≤ SC150 < 0.05 μM) | CCOC(=O)c1ccc(NCC#Cc2cc3c(N[C@@H]4CCN(CC)C[C@@H]4F)cccc3n2CC(F)(F)F)c(OC)c1 [Compound 823A]
24 | + (+ = 0 μM ≤ SC150 < 0.05 μM) | COc1cc(C(=O)O)ccc1NCC#Cc1cc2c(N[C@H]3CCN(CC(=O)N(C)C)C[C@H]3F)cccc2n1CC(F)(F)F [Compound 927A, 4-{[3-(4-{[(3R,4S)-1-[(dimethylcarbamoyl)methyl]-3-fluoropiperidin-4-yl]amino}-1-(2,2,2-trifluoroethyl)-1H-indol-2-yl)prop-2-yn-1-yl]amino}-3-methoxybenzoic acid]
